Measured values taken from patent US9777005B2 (Takeda Pharmaceutical Company Limited, priority 2012, dated 2017).

Molecular target: T1, human M1 receptor (hCHRM1) (Homo sapiens, UniProt P11229)
T1 construct: expressed in transfected cells; host or cells: CHO-K1
T1 sequence (P11229 1-460): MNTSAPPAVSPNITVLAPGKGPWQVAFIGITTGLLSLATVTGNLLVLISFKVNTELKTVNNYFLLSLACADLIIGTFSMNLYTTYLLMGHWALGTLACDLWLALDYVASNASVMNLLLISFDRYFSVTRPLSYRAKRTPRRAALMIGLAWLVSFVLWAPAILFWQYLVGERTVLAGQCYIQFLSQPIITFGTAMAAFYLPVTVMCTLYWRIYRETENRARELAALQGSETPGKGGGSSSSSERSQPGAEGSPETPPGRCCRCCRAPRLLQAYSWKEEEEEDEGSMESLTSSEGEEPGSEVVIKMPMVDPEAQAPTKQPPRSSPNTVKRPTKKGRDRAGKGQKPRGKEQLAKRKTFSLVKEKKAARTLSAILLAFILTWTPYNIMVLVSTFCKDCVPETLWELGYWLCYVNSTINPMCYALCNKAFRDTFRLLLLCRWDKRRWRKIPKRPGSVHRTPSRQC
Assay: Measurement of M1 receptor positive allosteric modulator (M1PAM) activity, calcium fluorescence (FLIPRtetra) in CHO-K1 cells in the presence of acetylcholine at EC20
Format: cell-based
Conditions: in the presence of acetylcholine at EC20 (final 0.6 nM), CHO-K1 cells expressing hCHRM1; for EC50: inflection point of M1PAM activity, read-out: IP value; for activity (%) at 10 μM: test compound 10 μM
In short: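 PAM activity was measured as calcium flux by FLIPRtetra over 1 min after co-addition of compound and EC20 acetylcholine (final 0.6 nM) to Fluo-4-loaded hCHRM1 CHO-K1 cells. The response was scaled between DMSO (0%) and 1 μM acetylcholine (100%), and the inflection point of the concentration curve gives the IP value.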

O=C1c2c(cccc2O[C@@H]2CCOC[C@H]2O)CN1Cc1ccc(Br)cc1 (single isomer, unassigned) [Example 268, 1,5-anhydro-3-O-(2-(4-bromobenzyl)-3-oxo-2,3-dihydro-1H-isoindol-4-yl)-2-deoxy-threo-pentitol]
EC50: 39 nM
activity (%) at 10 μM: 103%

Cc1ccn(-c2ccc(CN3Cc4cccc(O[C@H]5CCC[C@@H]5O)c4C3=O)cc2)n1 (relative stereo) [Example 40, 7-((trans-2-hydroxycyclopentyl)oxy)-2-(4-(3-methyl-1H-pyrazol-1-yl)benzyl)isoindolin-1-one]
EC50: 64 nM
activity (%) at 10 μM: 117%

Cn1cc(-c2ccc(CN3Cc4cccc(O[C@H]5CCCC[C@@H]5O)c4C3=O)cc2)cn1 (relative stereo) [Example 1, 7-((trans-2-hydroxycyclohexyl)oxy)-2-(4-(1-methyl-1H-pyrazol-4-yl)benzyl)isoindolin-1-one]
EC50: 7 nM
activity (%) at 10 μM: 102%

O=C1c2c(ncnc2Oc2ccc(C(F)(F)F)cc2F)CN1Cc1ccc(-c2ccnnc2)cc1 [Example 313, 4-(2-fluoro-4-(trifluoromethyl)phenoxy)-6-(4-(pyridazin-4-yl)benzyl)-6,7-dihydro-5H-pyrrolo[3,4-d]pyrimidin-5-one]
EC50: 27 nM
activity (%) at 10 μM: 89%

Cn1cc(-c2ccc(CN3Cc4ccnc(Oc5ccc(C(C)(C)C#N)cc5F)c4C3=O)cc2)cn1 [Example 409, 2-(3-fluoro-4-((2-(4-(1-methyl-1H-pyrazol-4-yl)benzyl)-3-oxo-2,3-dihydro-1H-pyrrolo[3,4-c]pyridin-4-yl)oxy)phenyl)-2-methylpropanenitrile]
EC50: 3.4 nM
activity (%) at 10 μM: 96%

Cn1cc(-c2ccc(CN3Cc4cccc(OCCN5CCC(F)(F)CC5)c4C3=O)cc2)cn1 [Example 18, 7-(2-(4,4-difluoropiperidin-1-yl)ethoxy)-2-(4-(1-methyl-1H-pyrazol-4-yl)benzyl)isoindolin-1-one]
EC50: 60 nM
activity (%) at 10 μM: 107%

CNC(=O)c1ccc(CN2Cc3ccnc(Oc4ccc(C5CC5)cc4F)c3C2=O)cn1 [Example 454, 5-((4-(4-cyclopropyl-2-fluorophenoxy)-3-oxo-1,3-dihydro-2H-pyrrolo[3,4-c]pyridin-2-yl)methyl)-N-methylpyridine-2-carboxamide]
EC50: 30 nM
activity (%) at 10 μM: 86%

Cn1cc(-c2ccc(CN3Cc4cccc(Oc5c(F)cccc5C#N)c4C3=O)cn2)cn1 [Example 65, 3-fluoro-2-((2-((6-(1-methyl-1H-pyrazol-4-yl)pyridin-3-yl)methyl)-3-oxo-2,3-dihydro-1H-isoindol-4-yl)oxy)benzonitrile]
EC50: 63 nM
activity (%) at 10 μM: 76%

Cn1cc(-c2ccc(CN3Cc4cccc(OCC5CCCO5)c4C3=O)c(F)c2)nn1 (stereo not drawn) [Example 330, 2-(2-fluoro-4-(1-methyl-1H-1,2,3-triazol-4-yl)benzyl)-7-((tetrahydrofuran-2-yl)methoxy)isoindolin-1-one]
EC50: 30 nM
activity (%) at 10 μM: 104%

Cc1nn(C)cc1-c1ccc(CN2Cc3ccnc(OCC4CCCCO4)c3C2=O)cc1 (stereo not drawn) [Example 252, 2-(4-(1,3-dimethyl-1H-pyrazol-4-yl)benzyl)-4-((tetrahydro-2H-pyran-2-yl)methoxy)-1,2-dihydro-3H-pyrrolo[3,4-c]pyridin-3-one]
EC50: 7.6 nM
activity (%) at 10 μM: 99%

O=C1c2c(ccnc2O[C@H]2CCCC[C@@H]2O)CN1Cc1cccs1 (relative stereo) [Example 399, 4-((trans-2-hydroxycyclohexyl)oxy)-2-(2-thienylmethyl)-1,2-dihydro-3H-pyrrolo[3,4-c]pyridin-3-one]
EC50: 97 nM
activity (%) at 10 μM: 94%

O=C1c2c(ccnc2Oc2ccc(C(F)(F)F)cc2F)CN1Cc1ccc(-c2ccnnc2)cc1 [Example 309, 4-(2-fluoro-4-(trifluoromethyl)phenoxy)-2-(4-(pyridazin-4-yl)benzyl)-1,2-dihydro-3H-pyrrolo[3,4-c]pyridin-3-one]
EC50: 27 nM
activity (%) at 10 μM: 100%

Cn1cc(-c2ccc(CN3Cc4cccc(O[C@H]5CCCC[C@@H]5O)c4C3=O)s2)cn1 (relative stereo) [Example 28, 7-((trans-2-hydroxycyclohexyl)oxy)-2-((5-(1-methyl-1H-pyrazol-4-yl)-2-thienyl)methyl)isoindolin-1-one]
EC50: 7 nM
activity (%) at 10 μM: 120%

Cn1cc(-c2ccc(CN3Cc4ccnc(Oc5ccc(C(O)C(F)(F)F)cc5F)c4C3=O)cc2)cn1 (stereo not drawn) [Example 393, 4-(2-fluoro-4-(2,2,2-trifluoro-1-hydroxyethyl)phenoxy)-2-(4-(1-methyl-1H-pyrazol-4-yl)benzyl)-1,2-dihydro-3H-pyrrolo[3,4-c]pyridin-3-one]
EC50: 5 nM
activity (%) at 10 μM: 89%

Cn1cc(-c2ccc(CN3Cc4ncnc(Oc5ccc(C(F)F)cc5F)c4C3=O)cc2)cn1 [Example 307, 4-(4-(difluoromethyl)-2-fluorophenoxy)-6-(4-(1-methyl-1H-pyrazol-4-yl)benzyl)-6,7-dihydro-5H-pyrrolo[3,4-d]pyrimidin-5-one]
EC50: 9.3 nM
activity (%) at 10 μM: 92%

O=C1c2c(ccnc2OCC2CCCO2)CN1Cc1ccc(Br)cc1 (stereo not drawn) [Example 284, 2-(4-bromobenzyl)-4-((tetrahydrofuran-2-yl)methoxy)-1,2-dihydro-3H-pyrrolo[3,4-c]pyridin-3-one]
EC50: 340 nM
activity (%) at 10 μM: 94%

CCC(O)COc1cccc2c1C(=O)N(Cc1ccc(-c3cnn(C)c3)cc1)C2 (stereo not drawn) [Example 261, 7-(2-hydroxybutoxy)-2-(4-(1-methyl-1H-pyrazol-4-yl)benzyl)isoindolin-1-one]
EC50: 25 nM
activity (%) at 10 μM: 98%

Cn1cc(-c2ccc(CN3Cc4ccnc(OCc5ccc(F)cc5F)c4C3=O)cc2)nn1 [Example 336, 4-((2,4-difluorobenzyl)oxy)-2-(4-(1-methyl-1H-1,2,3-triazol-4-yl)benzyl)-1,2-dihydro-3H-pyrrolo[3,4-c]pyridin-3-one]
EC50: 22 nM
activity (%) at 10 μM: 106%

Cn1cc(-c2ccc(CN3Cc4ccnc(Oc5c(F)cc(C#N)cc5F)c4C3=O)c(F)c2)cn1 [Example 386, 3,5-difluoro-4-((2-(2-fluoro-4-(1-methyl-1H-pyrazol-4-yl)benzyl)-3-oxo-2,3-dihydro-1H-pyrrolo[3,4-c]pyridin-4-yl)oxy)benzonitrile]
EC50: 1.4 nM
activity (%) at 10 μM: 86%

Cc1cc(-c2ccc(CN3Cc4ccnc(OCC5CCCO5)c4C3=O)cc2)ccn1 (stereo not drawn) [Example 80]
EC50: 5.6 nM
activity (%) at 10 μM: 100%

CCCc1ccc(Oc2nccc3c2C(=O)N(Cc2ccc(C(N)=O)cc2)C3)c(F)c1 [Example 450, 4-((4-(2-fluoro-4-propylphenoxy)-3-oxo-1,3-dihydro-2H-pyrrolo[3,4-c]pyridin-2-yl)methyl)benzamide]
EC50: 10 nM
activity (%) at 10 μM: 102%

Cn1cc(-c2ccc(CN3Cc4ncnc(Oc5c(F)cc(F)cc5F)c4C3=O)cc2)nn1 [Example 370, 6-(4-(1-methyl-1H-1,2,3-triazol-4-yl)benzyl)-4-(2,4,6-trifluorophenoxy)-6,7-dihydro-5H-pyrrolo[3,4-d]pyrimidin-5-one]
EC50: 14 nM
activity (%) at 10 μM: 97%

Cc1nn(C)cc1-c1ccc(CN2Cc3ccnc(OCC4CCCO4)c3C2=O)cc1 (stereo not drawn) [Example 78, 2-(4-(1,3-dimethyl-1H-pyrazol-4-yl)benzyl)-4-((tetrahydrofuran-2-yl)methoxy)-1,2-dihydro-3H-pyrrolo[3,4-c]pyridin-3-one]
EC50: 10 nM
activity (%) at 10 μM: 104%

Cn1ccc(-c2ccc(CN3Cc4ncnc(Oc5ccc(C(F)(F)F)cc5F)c4C3=O)cc2)n1 [Example 314, 4-(2-fluoro-4-(trifluoromethyl)phenoxy)-6-(4-(1-methyl-1H-pyrazol-3-yl)benzyl)-6,7-dihydro-5H-pyrrolo[3,4-d]pyrimidin-5-one]
EC50: 11 nM
activity (%) at 10 μM: 89%

CCC(O)COc1nccc2c1C(=O)N(Cc1ccc(-c3cn(C)nc3C)cc1)C2 (single isomer, unassigned) [Example 276, 2-(4-(1,3-dimethyl-1H-pyrazol-4-yl)benzyl)-4-(2-hydroxybutoxy)-1,2-dihydro-3H-pyrrolo[3,4-c]pyridin-3-one]
EC50: 3.6 nM
activity (%) at 10 μM: 99%

Cc1ccc(Oc2nccc3c2C(=O)N(Cc2ccc(-c4ccn(C)n4)cc2)C3)c(F)c1 [Example 420, 4-(2-fluoro-4-methylphenoxy)-2-(4-(1-methyl-1H-pyrazol-3-yl)benzyl)-1,2-dihydro-3H-pyrrolo[3,4-c]pyridin-3-one]
EC50: 39 nM
activity (%) at 10 μM: 101%

Cn1cc(-c2ccc(CN3Cc4cccc(Oc5c(F)cc([N+](=O)[O-])cc5Cl)c4C3=O)cc2)cn1 [Example 10, 7-(2-chloro-6-fluoro-4-nitrophenoxy)-2-(4-(1-methyl-1H-pyrazol-4-yl)benzyl)isoindolin-1-one]
EC50: 54 nM
activity (%) at 10 μM: 103%
